Numbered stars: 1 amine (or outer) side, 2 acyl side, 3 side chain; on linkers, the order of the positions; unused ones are H or OH. Bridge positions count the residues as written; N and C are the ends. Square brackets hold non-standard residues; d marks the D form. Peptide text beside a SMILES is read from it. * marks the point of attachment. pTerphenylCO(4''-OnC5H11) = CCCCCOc1ccc(-c2ccc(-c3ccc(C(=O)*)cc3)cc2)cc1; Orn(4R-OH,5R-OH) = O=C([C@H](C[C@@H](O)[C@@H](O)N[*:3])N[*:1])[*:2]; hTyr(3S-OH,4S-OH) = N[C@H](C(=O)O)[C@H](O)[C@@H](O)c1ccc(O)cc1; Pro(3S-OH,4S-Me) = C[C@H]1CN[C@H](C(=O)O)[C@H]1O; Hyp = O=C(O)[C@@H]1C[C@@H](O)CN1

In assay [1] the test system is E. coli 72. Put plainly: Time-kill curve. Format: cell-based, Escherichia coli. To be noted: 1 × 10^6 CFU in MHB; CAS 32 μg/mL, rifampin 8 μg/mL, alone or combined; counted at 4, 8, 24 h. The method, then: (§1) At each time point (0, 4, 8, and 24 h), 100 μL of the bacterial solution was continuously diluted 10-fold in physiological saline. Subsequently, the suspension was then plated onto LB agar plates and cultured for an overnight period at 37°C for bacterial count.

Assay [2] deals with E. coli MG1655. The assay is described as follows: Time-kill curve. Format: cell-based, Escherichia coli. To be noted: 1 × 10^6 CFU in MHB; CAS 16 μg/mL, rifampin 1 μg/mL, alone or combined; counted at 4, 8, 24 h. The method, then: as §1
Another assay has as its system P. aeruginosa PAO1. Put plainly: Checkerboard assay. Format: cell-based, Pseudomonas aeruginosa. As to conditions: MHB, 18 h at 37°C, OD600. Here is the method:
(§2) Checkerboard assays were performed to evaluate the synergistic effect of CAS in combination with antibiotics as previously described ([Cai et al., 2023]). Briefly, antibiotics and CAS were diluted two times with MHB medium (with or without Mg^2+ or EDTA) in a 96-well plate, respectively, to form an 8 × 8 medium, and an equal volume (200 μL/well) of bacterial suspension with the drug was cultured. A microplate reader was used to measure the OD600 value after 18 h of culture at 37°C (the OD600 value over 0.1 indicates bacterial growth). The fractional inhibitory concentration index (FICI) was calculated using the following formula: FICI = MICab/MICa + MICba/MICb. MICa and MICb are the corresponding MIC values of compounds A and B alone, respectively; MICab is the MIC value of compound A combined with compound B; and MICba is the MIC value of compound B combined with compound A. Indicative of synergy is FICI ≤0.5.

For assay [3], the system named is E. coli 72. The assay is described as follows: Galleria mellonella infection model. Format: in vivo. As to conditions: 2.25 × 10^5 CFU E. coli 72; CAS 64 mg/kg, rifampin 16 mg/kg, alone or in combination, injected via proleg; 10 larvae per group; survival over 48 h.
The subject of assay [4] is Salmonella Typhimurium ATCC14028. Put plainly: Checkerboard assay. To be noted: MHB, 18 h at 37°C, OD600. Type of assay: cell-based. The method, then:
as §2

The subject of assay [5] is E. coli MG1655. The assay is described as follows: microbe, parasite or virus in culture. Type of assay: cell-based, Escherichia coli. To be noted: for FICI in combination with rifampin: 8 × 8 checkerboard, FICI ≤0.5 indicates synergy; for Synergistic activity with rifampin (in words): checkerboard assays, analogs of CAS. Here is the method:
as §2

Assay [6] relates to E. coli 72. The assay is described as follows: Checkerboard assay. Format: cell-based, Escherichia coli. As to conditions: multidrug-resistant strain, MHB, 18 h at 37°C, OD600. Here is the method:
as §2

The subject of a further assay is E. coli ATCC25922. Put plainly: Checkerboard assay. Type of assay: cell-based, Escherichia coli. As to conditions: MHB, 18 h at 37°C, OD600. The method, then: as §2
The test system of a further assay is E. coli 69. The assay is described as follows: Checkerboard assay. As to conditions: MHB, 18 h at 37°C, OD600. Format: cell-based, Escherichia coli. Here is the method:
as §2

Assay [7] concerns E. coli MG1655. Put plainly: High-throughput screening of FDA-approved drug library for antibiotic adjuvants (growth inhibition, OD600). Format: cell-based, Escherichia coli. As to conditions: library drug alone, LB medium, 96-well, 8 h static culture at 37°C, relative to PMBN (positive) and DMSO (negative) controls, %, table head prints no unit.
Another assay deals with K+ channel (KvQT1/minK). To be noted: vendor library annotation (Targetmol); ref Kang J, et al. J Pharmacol Exp Ther. 2001 Oct;299(1):290-6; read-out: IC50, K+ channel (KvQT1/minK) antagonist; cited from earlier work. The text has this: Supplement Table_1.XLSX, sheet "Sheet1" | column: Bioactivity

Take `CO[C@H]1/C=C/O[C@@]2(C)Oc3c(C)c(O)c4c(O)c(c(/C=N/N5CCN(C)CC5)c(O)c4c3C2=O)NC(=O)/C(C)=C\C=C\[C@H](C)[C@H](O)[C@@H](C)[C@@H](O)[C@@H](C)[C@H](OC(C)=O)[C@@H]1C` [rifampin]: the “Time-kill, bacterial count” value with E. coli 72 [1] and in the assay with E. coli MG1655 [2] was “no antimicrobial efficacy” in each case. Besides, the MIC amounted to 16 mg/L in the assay on P. aeruginosa PAO1 (Pseudomonas aeruginosa, PAO1, rifampin alone); 16 mg/L in assay [4] (Salmonella enterica, rifampin alone); 8 mg/L with E. coli MG1655 [5] (Escherichia coli, MG1655, rifampin alone, MHB, 18 h at 37°C, OD600); 64 mg/L with E. coli 72 [6] (Escherichia coli, 72, rifampin alone); 4 mg/L in the assay on E. coli ATCC25922 (Escherichia coli, ATCC25922, rifampin alone); 8 mg/L with E. coli 69 (Escherichia coli, 69, rifampin alone). The “MIC of rifampin in combination with CAS” value in the assay on P. aeruginosa PAO1 (rifampin with CAS) came out at 0.5 mg/L; in assay [4] (rifampin with CAS), 0.5 mg/L; in the assay on E. coli MG1655 [5] (rifampin with CAS, MHB, 18 h at 37°C, OD600), 0.5 mg/L; in the assay on E. coli 72 [6] (rifampin with CAS) it was 0.5 mg/L; in the assay with E. coli ATCC25922 (rifampin with CAS), 0.25 mg/L; with E. coli 69 (rifampin with CAS), 0.5 mg/L. The “Death/mortality rate of G. mellonella larvae challenged with E. coli 72” value in the assay with E. coli 72 [3] is on record as “could not reduce the death rate”. In the assay on E. coli MG1655 [7], the “Growth inhibition, Compound” value stood at 101%.

In the case of `CCCCCOc1ccc(-c2ccc(-c3ccc(C(=O)N[C@H]4C[C@@H](O)[C@@H](O)NC(=O)[C@@H]5[C@@H](O)[C@@H](C)CN5C(=O)[C@H]([C@@H](C)O)NC(=O)[C@H]([C@H](O)[C@@H](O)c5ccc(O)cc5)NC(=O)[C@@H]5C[C@@H](O)CN5C(=O)[C@H]([C@@H](C)O)NC4=O)cc3)cc2)cc1` [Anidulafungin] ({pTerphenylCO(4''-OnC5H11)}-[Orn(4R-OH,5R-OH)]T[Hyp][hTyr(3S-OH,4S-OH)]T[Pro(3S-OH,4S-Me)]; lactam 1-C; N-terminus assumed), in the assay with E. coli MG1655 [5] (MHB, 18 h at 37°C), the “FICI in combination with rifampin” value was more than 1. Besides, the “Synergistic activity with rifampin (in words)” value (“Synergistic activity” for short) in the assay on E. coli MG1655 [5] is recorded as “weak synergistic activity”.

On to Micafungin sodium, for which the “FICI in combination with rifampin” value in the assay with E. coli MG1655 [5] (MHB, 18 h at 37°C) is recorded as more than 1. Also, the “Synergistic activity” value with E. coli MG1655 [5] is “weak synergistic activity”.

For `OC(c1cc(C(F)(F)F)nc2c(C(F)(F)F)cccc12)C1CCCCN1` (centres unmarked) [Mefloquine], in the assay on K+ channel (KvQT1/minK), the IC50 was approximately 1 µM.

On to Pneumocandin B0, for which the “FICI in combination with rifampin” value in the assay on E. coli MG1655 [5] (MHB, 18 h at 37°C) is more than 1. Further, in the assay with E. coli MG1655 [5], the “Synergistic activity” value is given as “weak synergistic activity”.

(Values after article PMC11358092, “Caspofungin enhances the potency of rifampin against Gram-negative bacteria” (Frontiers in Microbiology, 2024).)
